Laboratory results taken from the supplement of paper PMC10307832.

compound: COC1=CC=C(C=C1)CN2C=CC3=C2C=C(C=C3)C(=O)NO + Nc1nc2[nH]cc(CCc3ccc(C(=O)N[C@@H](CCC(=O)O)C(=O)O)cc3)c2c(=O)[nH]1 [Pemetrexed] (partner 0.2 µM); assay: relative viability (nuclei count vs DMSO), 5 days (fraction); higher = more cells survive; conditions: first compound 0.08 µM
In short: (§1)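 Lung cancer cell lines were seeded in 1536-well plates and dosed by pin tool the next day, with either a single drug or a fixed anchor-drug dose combined with five library-drug doses (not always all listed) spaced in √10 steps. Five days later, one step fixed the cells and stained their nuclei (final 0.05% Triton X-100, 1% formaldehyde, 1 ug/ml Hoechst), and nuclei were counted on 4× images. Relative viability is the nuclei count in treated wells divided by the count in vehicle wells, and each value is the median of duplicate plates.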

Cell Line | relative viability
NCI-H2342 | 0.726
NCI-H1975 | 0.288
H3255 | 0.576
NCI-H2023 | 0.23
NCI-H2405 | 0.979
SK-LU-1 | 0.942
NCI-H1437 | 0.334
NCI-H596 | 0.42
HCC-15 | 0.203
NCI-H460 | 0.0617
EMC-BAC-2 | 0.428
NCI-H2009 | 1.05
COR-L 105 | 0.686
NCI-H520 | 0.525
NCI-H1648 | 0.794
HCC-78 | 0.901
NCI-H1650 | 0.286
PC-14 | 0.107
SW 900 | 0.446
NCI-H1563 | 0.489
HCC-44 | 0.628
NCI-H1792 | 0.907
NCI-H2170 | 0.276
SK-MES-1 | 0.968

same assay, conditions: first compound 0.253 µM

Cell Line | relative viability
NCI-H2342 | 0.788
LU99A | 0.181
NCI-H1975 | 0.294
H3255 | 0.519
NCI-H2023 | 0.199
SK-LU-1 | 0.973
NCI-H1734 | 0.413
NCI-H1437 | 0.358
NCI-H596 | 0.501
HCC-15 | 0.237
NCI-H460 | 0.058
NCI-H2009 | 1.12
COR-L 105 | 1.08
NCI-H1395 | 0.788
NCI-H520 | 0.743
NCI-H1648 | 0.853

Cell Line | relative viability
NCI-H358 | 0.161
HCC-78 | 0.872
EKVX | 0.391
NCI-H1650 | 0.428
EPLC-272H | 0.342
LK-2 | 0.207
PC-14 | 0.132
SW 900 | 0.47
NCI-H522 | 1.01
NCI-H1563 | 0.708
NCI-H1793 | 0.943
HCC-44 | 0.665
NCI-H1792 | 0.952
NCI-H2170 | 0.268
SK-MES-1 | 0.985
NCI-H1944 | 0.63

same assay, conditions: first compound 0.8 µM

Cell Line | relative viability
NCI-H2342 | 0.791
LU99A | 0.169
NCI-H1975 | 0.299
H3255 | 0.614
NCI-H2023 | 0.207
NCI-H2405 | 1.02
SK-LU-1 | 1
NCI-H1734 | 0.427
NCI-H1437 | 0.319
NCI-H596 | 0.5
HCC-15 | 0.243
NCI-H460 | 0.0547
EMC-BAC-2 | 0.451
NCI-H2009 | 1
COR-L 105 | 1.25
NCI-H1395 | 0.913
NCI-H520 | 0.641

Cell Line | relative viability
NCI-H1648 | 0.829
NCI-H358 | 0.161
HCC-78 | 0.938
EKVX | 0.371
NCI-H1650 | 0.378
EPLC-272H | 0.317
LK-2 | 0.354
PC-14 | 0.14
SW 900 | 0.478
NCI-H522 | 1.06
NCI-H1563 | 0.839
NCI-H1793 | 0.997
HCC-44 | 0.585
NCI-H1792 | 1
NCI-H2170 | 0.266
SK-MES-1 | 0.9
NCI-H1944 | 0.568

same assay, conditions: first compound 2.53 µM

Cell Line | relative viability
NCI-H2342 | 0.753
LU99A | 0.174
NCI-H1975 | 0.291
H3255 | 0.583
NCI-H2023 | 0.208
NCI-H2405 | 1.03
SK-LU-1 | 1.01
NCI-H1734 | 0.4
NCI-H1437 | 0.305
NCI-H596 | 0.469
HCC-15 | 0.234
NCI-H460 | 0.0598
EMC-BAC-2 | 0.476
NCI-H2009 | 0.983
COR-L 105 | 0.983
NCI-H1395 | 0.91
NCI-H520 | 0.661

Cell Line | relative viability
NCI-H1648 | 0.717
NCI-H358 | 0.167
HCC-78 | 0.918
EKVX | 0.45
NCI-H1650 | 0.392
EPLC-272H | 0.271
LK-2 | 0.353
PC-14 | 0.135
SW 900 | 0.486
NCI-H522 | 0.84
NCI-H1563 | 0.728
NCI-H1793 | 1.08
HCC-44 | 0.649
NCI-H1792 | 1.05
NCI-H2170 | 0.26
SK-MES-1 | 0.896
NCI-H1944 | 0.705

same assay, conditions: first compound 8 µM

Cell Line | relative viability
NCI-H2342 | 0.829
LU99A | 0.194
NCI-H1975 | 0.286
H3255 | 0.583
NCI-H2023 | 0.209
NCI-H2405 | 0.948
SK-LU-1 | 0.953
NCI-H1734 | 0.414
NCI-H1437 | 0.3
NCI-H596 | 0.492
HCC-15 | 0.217
NCI-H460 | 0.0652
EMC-BAC-2 | 0.491
NCI-H2009 | 1.1
COR-L 105 | 1.04
NCI-H1395 | 0.726
NCI-H520 | 0.648

Cell Line | relative viability
NCI-H1648 | 0.641
NCI-H358 | 0.164
HCC-78 | 0.66
EKVX | 0.392
NCI-H1650 | 0.308
EPLC-272H | 0.322
LK-2 | 0.243
PC-14 | 0.152
SW 900 | 0.474
NCI-H522 | 1
NCI-H1563 | 0.761
NCI-H1793 | 0.698
HCC-44 | 0.664
NCI-H1792 | 0.832
NCI-H2170 | 0.235
SK-MES-1 | 0.849
NCI-H1944 | 0.527

compound: C[C@]1(c2nc3c(C(N)=O)cccc3[nH]2)CCCN1 [Veliparib] + Cc1nc(Nc2ncc(C(=O)Nc3c(C)cccc3Cl)s2)cc(N2CCN(CCO)CC2)n1 [Dasatinib] (partner 0.075 µM); assay: as above; conditions: first compound 0.02 µM
In short: as §1

Cell Line | relative viability
NCI-H2342 | 0.293
LU99A | 0.592
NCI-H1975 | 0.336
H3255 | 0.303
NCI-H2023 | 0.511
NCI-H2405 | 0.225
SK-LU-1 | 0.185
NCI-H1734 | 0.523
NCI-H1437 | 0.212
NCI-H596 | 0.611
NCI-H460 | 0.456
EMC-BAC-2 | 0.362
NCI-H2009 | 0.332
COR-L 105 | 0.355
NCI-H1395 | 0.379
NCI-H520 | 0.194
NCI-H358 | 0.0991
HCC-78 | 0.438
EPLC-272H | 0.291
PC-14 | 0.214
NCI-H522 | 0.887
NCI-H1563 | 0.462
NCI-H727 | 0.267
NCI-H1793 | 0.398
NCI-H1792 | 0.79
NCI-H2170 | 0.549
SK-MES-1 | 0.39
NCI-H1944 | 0.204

same assay, conditions: first compound 0.06325 µM

Cell Line | relative viability
NCI-H2342 | 0.297
NCI-H1623 | 0.458
LU99A | 0.51
NCI-H1975 | 0.37
H3255 | 0.344
NCI-H2023 | 0.596
NCI-H2405 | 0.171
SK-LU-1 | 0.173
NCI-H1734 | 0.473
NCI-H1437 | 0.36
ABC-1 | 0.355
NCI-H596 | 0.571
HCC-15 | 0.524
NCI-H460 | 0.393
EMC-BAC-2 | 0.27
NCI-H2009 | 0.319
COR-L 105 | 0.273

Cell Line | relative viability
NCI-H1395 | 0.381
NCI-H520 | 0.233
NCI-H358 | 0.156
HCC-78 | 0.337
EKVX | 0.658
NCI-H1650 | 0.319
EPLC-272H | 0.367
LK-2 | 0.266
PC-14 | 0.26
NCI-H522 | 0.904
NCI-H1563 | 0.474
NCI-H727 | 0.365
NCI-H1793 | 0.448
NCI-H1792 | 0.79
NCI-H2170 | 0.629
SK-MES-1 | 0.34
NCI-H1944 | 0.196

same assay, conditions: first compound 0.2 µM

Cell Line | relative viability
NCI-H2342 | 0.299
NCI-H1623 | 0.598
LU99A | 0.612
NCI-H1975 | 0.331
H3255 | 0.253
NCI-H2023 | 0.532
NCI-H2405 | 0.225
SK-LU-1 | 0.175
NCI-H1734 | 0.569
NCI-H1437 | 0.424
ABC-1 | 0.604
NCI-H596 | 0.641
HCC-15 | 0.629
NCI-H460 | 0.419
EMC-BAC-2 | 0.333
NCI-H2009 | 0.331
COR-L 105 | 0.352
NCI-H1395 | 0.46

Cell Line | relative viability
NCI-H520 | 0.176
NCI-H358 | 0.169
HCC-78 | 0.444
EKVX | 0.66
NCI-H1650 | 0.3
EPLC-272H | 0.323
LK-2 | 0.258
PC-14 | 0.319
SW 900 | 0.538
NCI-H522 | 0.963
NCI-H1563 | 0.4
NCI-H727 | 0.305
NCI-H1793 | 0.408
NCI-H1792 | 0.822
NCI-H2170 | 0.587
SK-MES-1 | 0.432
NCI-H1944 | 0.21

same assay, conditions: first compound 0.6325 µM

Cell Line | relative viability
NCI-H2342 | 0.321
NCI-H1623 | 0.524
LU99A | 0.517
NCI-H1975 | 0.368
H3255 | 0.402
NCI-H2023 | 0.547
NCI-H2405 | 0.244
SK-LU-1 | 0.17
NCI-H1734 | 0.443
NCI-H1437 | 0.421
ABC-1 | 0.591
NCI-H596 | 0.521
HCC-15 | 0.603
NCI-H460 | 0.466
EMC-BAC-2 | 0.305
NCI-H2009 | 0.29
COR-L 105 | 0.331
NCI-H1395 | 0.414

Cell Line | relative viability
NCI-H520 | 0.168
NCI-H358 | 0.131
HCC-78 | 0.483
EKVX | 0.532
NCI-H1650 | 0.271
EPLC-272H | 0.325
LK-2 | 0.325
PC-14 | 0.281
SW 900 | 0.644
NCI-H522 | 0.831
NCI-H1563 | 0.491
NCI-H727 | 0.47
NCI-H1793 | 0.277
NCI-H1792 | 0.707
NCI-H2170 | 0.562
SK-MES-1 | 0.397
NCI-H1944 | 0.195

same assay, conditions: first compound 2 µM

Cell Line | relative viability
NCI-H2342 | 0.288
NCI-H1623 | 0.462
LU99A | 0.431
NCI-H1975 | 0.372
H3255 | 0.32
NCI-H2023 | 0.625
NCI-H2405 | 0.222
SK-LU-1 | 0.187
NCI-H1734 | 0.505
NCI-H1437 | 0.249
ABC-1 | 0.367
NCI-H596 | 0.633
HCC-15 | 0.582
NCI-H460 | 0.479
EMC-BAC-2 | 0.315
NCI-H2009 | 0.292
COR-L 105 | 0.324
NCI-H1395 | 0.437
NCI-H520 | 0.188
NCI-H358 | 0.152
HCC-78 | 0.257
EKVX | 0.48
NCI-H1650 | 0.223
EPLC-272H | 0.36
LK-2 | 0.291
PC-14 | 0.317
SW 900 | 0.696
